Experimental data: ChEMBL document CHEMBL4043225, “Identification of potent, nonabsorbable agonists of the calcium-sensing receptor for GI-specific administration” (Bioorg Med Chem Lett, 2017)

Columns and labels:
[1] = target: T1, Extracellular calcium-sensing receptor (Homo sapiens) (UniProt P41180); assay: (§1) Agonist activity at human CaSR expressed in HEK293 cells assessed as increase in intracellular calcium mobilization by fluo-4AM dye based FLIPR assay; format: functional, cell-based
T1 sequence (whole entry): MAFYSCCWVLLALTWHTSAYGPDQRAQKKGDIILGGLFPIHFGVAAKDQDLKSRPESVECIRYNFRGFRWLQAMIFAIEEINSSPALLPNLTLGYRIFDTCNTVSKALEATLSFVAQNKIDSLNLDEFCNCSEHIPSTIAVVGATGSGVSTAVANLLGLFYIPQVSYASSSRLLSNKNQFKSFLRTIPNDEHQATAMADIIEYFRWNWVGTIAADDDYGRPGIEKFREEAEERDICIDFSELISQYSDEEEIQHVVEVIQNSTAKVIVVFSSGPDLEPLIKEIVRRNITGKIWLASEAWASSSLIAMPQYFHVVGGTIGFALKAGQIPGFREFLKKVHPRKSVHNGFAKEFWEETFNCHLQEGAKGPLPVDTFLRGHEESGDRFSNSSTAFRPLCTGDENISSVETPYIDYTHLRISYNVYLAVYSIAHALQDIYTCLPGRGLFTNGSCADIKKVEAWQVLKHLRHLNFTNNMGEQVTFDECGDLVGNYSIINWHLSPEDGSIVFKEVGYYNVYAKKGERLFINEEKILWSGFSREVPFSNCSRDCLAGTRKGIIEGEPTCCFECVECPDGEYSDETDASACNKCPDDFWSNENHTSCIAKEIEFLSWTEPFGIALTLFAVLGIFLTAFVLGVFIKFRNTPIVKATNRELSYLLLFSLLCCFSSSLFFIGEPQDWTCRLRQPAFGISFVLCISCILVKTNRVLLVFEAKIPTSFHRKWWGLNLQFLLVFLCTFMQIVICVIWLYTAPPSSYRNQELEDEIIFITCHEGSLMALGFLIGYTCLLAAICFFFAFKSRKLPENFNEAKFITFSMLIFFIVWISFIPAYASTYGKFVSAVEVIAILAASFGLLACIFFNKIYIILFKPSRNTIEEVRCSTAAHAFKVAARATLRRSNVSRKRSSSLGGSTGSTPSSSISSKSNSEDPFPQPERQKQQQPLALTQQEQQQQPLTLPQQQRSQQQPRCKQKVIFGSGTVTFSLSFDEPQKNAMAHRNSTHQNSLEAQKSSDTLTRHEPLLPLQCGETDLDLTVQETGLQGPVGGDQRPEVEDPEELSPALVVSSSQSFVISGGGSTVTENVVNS

[2] = target: T2, Extracellular calcium-sensing receptor (Homo sapiens, UniProt P41180); assay: as §1; format: functional, cell-based; conditions: read-out: pEC50 (converted)
T2 sequence (P41180 whole entry): T1 sequence (whole entry)

[3] = Half-life in Sprague-Dawley rat cecal homogenates at 10 uM by LC-MS/MS analysis; format: ADME, tissue-based, Caecum
[4] = Cmax in CD rat portal vein at 50 mg/kg, po administered via gavage; format: ADME, organism-based; design: dose 50 mg/kg, route oral
[5] = Cmax in CD rat systemic circulation at 50 mg/kg, po administered via gavage; format: ADME, organism-based; design: dose 50 mg/kg, route oral
[6] = Cmax in CD rat portal vein at 30 mg/kg, po administered via gavage; format: ADME, organism-based; design: dose 30 mg/kg, route oral
[7] = Cmax in CD rat systemic circulation at 30 mg/kg, po administered via gavage; format: ADME, organism-based; design: dose 30 mg/kg, route oral
[8] = Drug recovery in CD rat feces at 30 mg/kg, po administered via gavage measured by LC-MS/MS analysis; format: ADME, organism-based; conditions: read-out: Drug recovery

Row | %max [1] [%] | EC50 [2] [nM] | half-life at 10 µM [3] [h] | Cmax [4] [ng/mL] | Cmax [5] [ng/mL] | Cmax [6] [ng/mL] | Cmax [7] [ng/mL] | dose excreted [8] [%] | SMILES
1 | 83 | 126 | > 12 | 164 | 154 | – | – | – | C[C@@H](N[C@H]1CCN(c2ccc(C(=O)NCC[N+](C)(C)C)cc2)C1)c1cccc2ccccc12.[Cl-]
2 | 75 | 12.6 | – | – | – | – | – | – | C[C@@H](N[C@H]1CCN(c2ccc(C(=O)NCCN)cc2)C1)c1cccc2ccccc12
3 | 79 | 398 | 9.1 | – | – | 12 | 9 | 65 | C[C@@H](N[C@H]1CCN(c2ccc(C(=O)N[C@H](CC(=O)O)C(=O)O)cc2)C1)c1cccc2ccccc12
4 | 70 | 3160 | – | – | – | – | – | – | C[C@@H](N[C@H]1CCN(c2ccc(P(=O)(O)O)cc2)C1)c1cccc2ccccc12
5 | 85 | 39.8 | 0.8 | – | – | – | – | – | C[C@@H](N[C@H]1CCN(c2ccc(C(=O)NCCS(=O)(=O)O)cc2)C1)c1cccc2ccccc12

The next lines start with the compound.

Row | SMILES | %max [1] [%] | EC50 [2] [nM] | half-life at 10 µM [3] [h] | Cmax [4] [ng/mL] | Cmax [5] [ng/mL] | Cmax [6] [ng/mL] | Cmax [7] [ng/mL] | dose excreted [8] [%]
6 | C[C@@H](N[C@H]1CCN(c2ccc(S(=O)(=O)NCC(=O)O)cc2)C1)c1cccc2ccccc12 | 83 | 39.8 | > 12 | 1120 | 317 | – | – | –
7 | C[C@@H](N[C@H]1CCN(c2ccc(S(=O)(=O)NC(=O)CC(=O)O)cc2)C1)c1cccc2ccccc12 | 79 | 1580 | – | – | – | – | – | –
8 | C[C@@H](N[C@H]1CCN(c2ccc(S(=O)(=O)NCCN(C)C)cc2)C1)c1cccc2ccccc12 | 84 | 12.6 | – | – | – | – | – | –
9 | C[C@@H](N[C@H]1CCN(c2ccc(C(=O)N[C@H](CCCCN)C(=O)O)cc2)C1)c1cccc2ccccc12 | 96 | 100 | 4.3 | – | – | – | – | –
